Tests used:
Format in all cases: functional
[1] = tested on: SK-MEL-2; test: Cytotoxicity against human SK-MEL-2 cells assessed as cell growth at 1 uM incubated for 48 hrs by sulforhodamine B assay relative to control; conditions: SK-MEL-2, 48 h, read-out: Activity
[2] = tested on: 786-0; test: Cytotoxicity against human 786-0 cells assessed as cell growth at 10 uM incubated for 48 hrs by sulforhodamine B assay relative to control; conditions: 786-0, 48 h, read-out: Activity
[3] = tested on: NCI-H460; test: Cytotoxicity against human NCI-H460 cells assessed as cell growth at 10 uM incubated for 48 hrs by sulforhodamine B assay relative to control; conditions: NCI-H460, 48 h, read-out: Activity
[4] = tested on: HCT-116; test: Cytotoxicity against human HCT116 cells assessed as cell growth at 0.1 uM incubated for 48 hrs by sulforhodamine B assay relative to control; conditions: HCT-116, 48 h, read-out: Activity
[5] = tested on: 786-0; test: Cytotoxicity against human 786-0 cells assessed as cell growth at 0.1 uM incubated for 48 hrs by sulforhodamine B assay relative to control; conditions: 786-0, 48 h, read-out: Activity
[6] = tested on: NCI-H226; test: Cytotoxicity against human NCI-H226 cells incubated for 48 hrs by sulforhodamine B assay; conditions: NCI-H226, 48 h
[7] = tested on: HOP-92; test: Cytotoxicity against human HOP92 cells assessed as cell growth at 100 uM incubated for 48 hrs by sulforhodamine B assay relative to control; conditions: HOP-92, 48 h, read-out: Activity
[8] = tested on: A498; test: Cytotoxicity against human A498 cells assessed as cell growth at 0.01 uM incubated for 48 hrs by sulforhodamine B assay relative to control; conditions: A498, 48 h, read-out: Activity
[9] = tested on: HCC 2998; test: Cytotoxicity against human HCC2998 cells assessed as cell growth at 10 uM incubated for 48 hrs by sulforhodamine B assay relative to control; conditions: HCC 2998, 48 h, read-out: Activity
[10] = tested on: HCT-116; test: Cytotoxicity against human HCT116 cells assessed as cell growth at 100 uM incubated for 48 hrs by sulforhodamine B assay relative to control; conditions: HCT-116, 48 h, read-out: Activity
[11] = tested on: LOX IMVI; test: Cytotoxicity against human LOXIMVI cells assessed as cell growth at 0.1 uM incubated for 48 hrs by sulforhodamine B assay relative to control; conditions: read-out: Activity
[12] = tested on: SNB-19; test: Cytotoxicity against human SNB19 cells incubated for 48 hrs by sulforhodamine B assay; conditions: SNB-19, 48 h
[13] = tested on: A498; test: Cytotoxicity against human A498 cells assessed as cell growth at 0.1 uM incubated for 48 hrs by sulforhodamine B assay relative to control; conditions: A498, 48 h, read-out: Activity
[14] = tested on: OVCAR-8; test: Cytotoxicity against human OVCAR8 cells incubated for 48 hrs by sulforhodamine B assay; conditions: OVCAR-8, 48 h
[15] = tested on: MOLT-4; test: Cytotoxicity against human MOLT4 cells assessed as cell growth at 1 uM incubated for 48 hrs by sulforhodamine B assay relative to control; conditions: MOLT-4, 48 h, read-out: Activity
[16] = tested on: NCI/ADR-RES; test: Cytotoxicity against human NCI/ADR-RES cells assessed as cell growth at 0.01 uM incubated for 48 hrs by sulforhodamine B assay relative to control; conditions: read-out: Activity
[17] = tested on: OVCAR-4; test: Cytotoxicity against human OVCAR4 cells assessed as cell growth at 100 uM incubated for 48 hrs by sulforhodamine B assay relative to control; conditions: OVCAR-4, 48 h, read-out: Activity
[18] = tested on: CCRF-CEM; test: Cytotoxicity against human CCRF-CEM cells incubated for 48 hrs by sulforhodamine B assay
[19] = tested on: CAKI-1; test: Cytotoxicity against human Caki1 cells incubated for 48 hrs by sulforhodamine B assay; conditions: CAKI-1, 48 h
[20] = tested on: OVCAR-3; test: Cytotoxicity against human OVCAR3 cells assessed as cell growth at 0.1 uM incubated for 48 hrs by sulforhodamine B assay relative to control; conditions: OVCAR-3, 48 h, read-out: Activity
[21] = tested on: MCF7; test: Cytotoxicity against human MCF7 cells assessed as cell growth at 100 uM incubated for 48 hrs by sulforhodamine B assay relative to control; conditions: MCF7, 48 h, read-out: Activity
[22] = tested on: HOP-62; test: Cytotoxicity against human HOP62 cells assessed as cell growth at 1 uM incubated for 48 hrs by sulforhodamine B assay relative to control; conditions: HOP-62, 48 h, read-out: Activity
[23] = tested on: SK-MEL-2; test: Cytotoxicity against human SK-MEL-2 cells assessed as cell growth at 100 uM incubated for 48 hrs by sulforhodamine B assay relative to control; conditions: SK-MEL-2, 48 h, read-out: Activity
[24] = tested on: TK-10; test: Cytotoxicity against human TK10 cells incubated for 48 hrs by sulforhodamine B assay; conditions: TK-10, 48 h
[25] = tested on: UO-31; test: Cytotoxicity against human UO31 cells incubated for 48 hrs by sulforhodamine B assay; conditions: UO-31, 48 h
[26] = tested on: TK-10; test: Cytotoxicity against human TK10 cells assessed as cell growth at 1 uM incubated for 48 hrs by sulforhodamine B assay relative to control; conditions: TK-10, 48 h, read-out: Activity
[27] = tested on: TK-10; test: Cytotoxicity against human TK10 cells assessed as cell growth at 100 uM incubated for 48 hrs by sulforhodamine B assay relative to control; conditions: TK-10, 48 h, read-out: Activity
[28] = tested on: TK-10; test: Cytotoxicity against human TK10 cells assessed as cell growth at 0.1 uM incubated for 48 hrs by sulforhodamine B assay relative to control; conditions: TK-10, 48 h, read-out: Activity
[29] = tested on: RPMI-8226; test: Cytotoxicity against human RPMI8226 cells assessed as cell growth at 0.1 uM incubated for 48 hrs by sulforhodamine B assay relative to control; conditions: RPMI-8226, 48 h, read-out: Activity
[30] = tested on: HCT-116; test: Cytotoxicity against human HCT116 cells incubated for 48 hrs by sulforhodamine B assay; conditions: HCT-116, 48 h
[31] = read-out: LC50 (the source's name)
[32] = read-out: pLC50 (the source's name) (converted)

COc1ccc(-c2nocc2-c2cc(OC)c(OC)c(OC)c2)cc1
growth at 1 µM [1]: 28% | growth at 10 µM [2]: 24% | growth at 10 µM [3]: 4% | growth at 0.1 µM [4]: 21% | growth at 0.1 µM [5]: 54% | GI50 ([6]; read-out: GI50): 15.5 µM | LC50 ([6]; read-out: LC50): > 100 µM | TGI ([6]; read-out: TGI): 58.3 µM | GI50 ([6]; read-out: pGI50 (converted)): 15.5 µM | LC50 ([6]; read-out: pLC50 (converted)): > 100 µM | TGI ([6]; read-out: pTGI (converted)): 58.9 µM | growth at 100 µM [7]: -21% | growth at 0.01 µM [8]: 73% | growth at 10 µM [9]: 25% | growth at 100 µM [10]: -29% | growth at 0.1 µM [11]: 55% | GI50 ([12]; read-out: GI50): 0.373 µM | CC50 [12, 31]: > 100 µM | TGI ([12]; read-out: TGI): > 100 µM | GI50 ([12]; read-out: pGI50 (converted)): 0.372 µM | CC50 [12, 32]: > 100 µM | TGI ([12]; read-out: pTGI): > 100 µM | growth at 0.1 µM [13]: 29% | GI50 ([14]; read-out: GI50): 0.327 µM | CC50 [14, 31]: > 100 µM | TGI ([14]; read-out: TGI): > 100 µM | GI50 ([14]; read-out: pGI50 (converted)): 0.324 µM | CC50 [14, 32]: > 100 µM | TGI ([14]; read-out: pTGI): > 100 µM | growth at 1 µM [15]: 44% | growth at 0.01 µM [16]: 92% | growth at 100 µM [17]: 15% | GI50 ([18]; read-out: GI50): 0.404 µM | LC50 ([18]; read-out: LC50): > 100 µM | TGI ([18]; read-out: TGI): > 100 µM | GI50 ([18]; read-out: pGI50 (converted)): 0.407 µM | LC50 ([18]; read-out: pLC50 (converted)): > 100 µM | TGI ([18]; read-out: pTGI): > 100 µM | GI50 ([19]; read-out: GI50): 0.642 µM | LC50 ([19]; read-out: LC50): > 100 µM | TGI ([19]; read-out: TGI): > 100 µM | GI50 ([19]; read-out: pGI50 (converted)): 0.646 µM | LC50 ([19]; read-out: pLC50 (converted)): > 100 µM | TGI ([19]; read-out: pTGI): > 100 µM | growth at 0.1 µM [20]: 15% | growth at 100 µM [21]: 1% | growth at 1 µM [22]: 39% | growth at 100 µM [23]: -8% | GI50 ([24]; read-out: GI50): 0.0792 µM | CC50 [24, 31]: > 100 µM | TGI ([24]; read-out: TGI): 43.1 µM | GI50 ([24]; read-out: pGI50 (converted)): 0.0794 µM | CC50 [24, 32]: > 100 µM | TGI ([24]; read-out: pTGI (converted)): 42.7 µM | GI50 ([25]; read-out: GI50): 0.545 µM | CC50 [25, 31]: > 100 µM | TGI ([25]; read-out: TGI): 28.7 µM | GI50 ([25]; read-out: pGI50 (converted)): 0.55 µM | CC50 [25, 32]: > 100 µM | TGI ([25]; read-out: pTGI (converted)): 28.8 µM | growth at 1 µM [26]: 21% | growth at 100 µM [27]: -10% | growth at 0.1 µM [28]: 46% | growth at 0.1 µM [29]: 82% | GI50 ([30]; read-out: GI50): 0.039 µM | LC50 (concentration killing 50% of cells) ([30]; read-out: LC50): > 100 µM | TGI ([30]; read-out: TGI): 14.7 µM | GI50 ([30]; read-out: pGI50 (converted)): 0.0389 µM | LC50 (concentration killing 50% of cells) ([30]; read-out: pLC50 (converted)): > 100 µM | TGI ([30]; read-out: pTGI (converted)): 14.8 µM
